# Experimental data taken from US11478460B2, “Diaryl substituted 6,5-fused ring compounds as C5aR inhibitors” (CHEMOCENTRYX, INC., priority 2017, dated 2022).
# Biological target: C5aR (Homo sapiens (Human), UniProt P21730)
# Assay: Chemotaxis assay using U937 cells (C5aR mediated migration)
# Assay type: cell-based
# Settings: read-out: Mig IC50
# Method in brief: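 Migration toward 0.03 nM C5a, mixed with varying compound in the lower chamber (HBSS with 1% FBS), was measured over 1.5 h at 37° C through 5 μm filters. Upper chamber held 100,000 U937 cells treated overnight with 0.5 mM cAMP; migrated cells quantified by counts or CyQuant for IC50, SDF-1α as specificity control.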
# C5aR, sequence (P21730 whole entry): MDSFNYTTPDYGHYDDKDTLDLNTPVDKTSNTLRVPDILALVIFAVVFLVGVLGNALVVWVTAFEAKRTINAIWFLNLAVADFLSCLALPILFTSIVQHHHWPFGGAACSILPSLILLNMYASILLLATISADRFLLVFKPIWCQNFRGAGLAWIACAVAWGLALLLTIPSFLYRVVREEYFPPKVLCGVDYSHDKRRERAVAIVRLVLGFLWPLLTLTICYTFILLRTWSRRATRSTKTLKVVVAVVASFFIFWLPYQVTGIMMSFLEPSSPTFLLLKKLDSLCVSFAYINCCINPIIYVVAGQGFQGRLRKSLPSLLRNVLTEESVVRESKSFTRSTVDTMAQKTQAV
row,IC50 [nM],Compound
1,≤ 5,Cc1cccc(OCC(C)C)c1-n1nc2c(c1-c1ccc(NC(N)=O)cc1)CN(c1ccccc1C(C)C)CC2 [Example 1.474]
2,5 to 50,CCOc1cccc(C)c1-n1nc2c(c1-c1ccc(NC(N)=O)cc1)CN(c1ccccc1C(C)C)CC2 [Example 1.475]
3,≤ 5,Cc1cccc(OCC(C)C)c1-n1nc2c(c1-c1ccc(NC(N)=O)c(F)c1)CN(Cc1ccc(C(F)(F)F)cc1C(F)(F)F)CC2 [Example 1.277]
4,50 to 500,Cc1cc(N)ccc1-c1c2c(nn1-c1c(C)cccc1C)CCN(c1ccccc1C(C)C)C2 [Example 1.468]
5,≤ 5,Cc1ccc(C(C)C)nc1N1CCc2nn(-c3c(C)cccc3OCC(C)C)c(-c3ccc(NC(N)=O)cc3)c2C1 [Example 1.347]
6,5 to 50,Cc1cccc(C)c1CN1CCc2nn(-c3c(C)cccc3OCC(C)C)c(-c3ccc(NC(N)=O)cc3)c2C1 [Example 1.376]
7,5 to 50,COc1cc(-c2c3c(nn2-c2c(C)cccc2OCC(C)C)CCN(c2ncc(C(F)(F)F)cc2F)C3)ccc1NC(N)=O [Example 1.267]
8,5 to 50,Cc1cccc(OCC(C)C)c1-n1nc2c(c1-c1ccc(NC(N)=O)cc1)CN(c1ccc(C(F)(F)F)cc1Cl)CC2 [Example 1.375]
9,5 to 50,Cc1cccc(C)c1-n1nc2c(c1-c1ccc(N)cc1)CN(c1ccccc1C(C)(C)C)CC2 [Example 1.471]
10,5 to 50,Cc1cccc(OCC(C)C)c1-n1nc2c(c1-c1ccc(NC(N)=O)cc1)CN(c1nc(C(F)(F)F)ccc1F)CC2 [Example 1.386]
11,5 to 50,COc1ccc(Cl)c(CN2CCc3nn(-c4c(C)cccc4OCC(C)C)c(-c4ccc(NC(N)=O)cc4)c3C2)c1 [Example 1.302]
12,5 to 50,Cc1cccc(OCC(C)C)c1-n1nc2c(c1-c1ccc(NC(N)=O)cc1)CN(CC(C)(C)C)CC2 [Example 1.405]
13,≤ 5,Cc1cccc(OCC(C)C)c1-n1nc2c(c1-c1ccc(NC(N)=O)c(F)c1)CN(c1ncc(F)cc1F)CC2 [Example 1.249]
14,50 to 500,Cc1cccc(OCC(C)C)c1-n1nc2c(c1-c1ccc(NC(N)=O)cc1)CN(C(=O)C(C)(C)C)CC2 [Example 1.436]
15,5 to 50,Cc1cccc(OCC(C)C)c1-n1nc2c(c1-c1ccc(NC(N)=O)cc1)CN(Cc1cc(Cl)ccc1OC(C)C)CC2 [Example 1.280]
16,≤ 5,Cc1ccc(CN2CCc3nn(-c4c(C)cccc4OCC(C)C)c(-c4ccc(NC(N)=O)cc4)c3C2)c(F)c1 [Example 1.308]
17,> 500,Cc1cccc(OCC(C)C)c1-n1nc2c(c1-c1ccc(NC(N)=O)cc1)CN(C(=O)COC(C)(C)C)CC2 [Example 1.424]
18,50 to 500,COc1cccc(C)c1-n1nc2c(c1-c1ccc(N)cc1)CN(c1ccccc1C(C)C)CC2 [Example 1.486]

row,IC50 [nM],Compound
1,≤ 5,Cc1cccc(OCC(C)C)c1-n1nc2c(c1-c1ccc(NC(N)=O)cc1Cl)CN(c1ncc(C(F)(F)F)cc1F)CC2 [Example 1.269]
2,> 500,COc1cccc(C)c1-n1nc2c(c1-c1ccc(NC3CCCC3)cc1)CN(c1ccccc1C)CC2 [Example 1.490]
3,5 to 50,COc1cccc(C)c1-n1nc2c(c1-c1ccc(NC(N)=O)cc1)CN(c1cc(C(C)(C)C)ccc1C)CC2 [Example 1.462]
4,5 to 50,Cc1cccc(OCC(C)C)c1-n1nc2c(c1-c1ccc(NC(N)=O)cc1)CN(c1ncc(C(F)(F)F)cn1)CC2 [Example 1.352]
5,5 to 50,Cc1cnc(C(C)C)cc1N1CCc2nn(-c3c(C)cccc3OCC(C)C)c(-c3ccc(NC(N)=O)cc3)c2C1 [Example 1.348]
6,50 to 500,COc1cccc(C)c1-n1nc2c(c1-c1ccc(NC(N)=O)nc1)CN(c1ccccc1C(C)C)CC2 [Example 1.447]
7,5 to 50,Cc1ccc(C(C)(C)C)cc1N1CCc2nn(-c3c(C)cccc3CCC(C)C)c(-c3ccc(NC(N)=O)cc3)c2C1 [Example 1.387]
8,≤ 5,CCc1cccc(CC)c1-n1nc2c(c1-c1ccc(NC(N)=O)cc1)CN(C(c1ccccc1C(F)(F)F)C(C)C)CC2 (centres unmarked) [Example 1.281]
9,≤ 5,Cc1ccc(CN2CCc3nn(-c4c(C)cccc4OCC(C)C)c(-c4ccc(NC(N)=O)cc4)c3C2)c(Cl)c1 [Example 1.312]
10,5 to 50,Cc1cc(C(F)(F)F)ccc1N1CCc2nn(-c3c(C)cccc3OCC(C)C)c(-c3ccc(NC(N)=O)cc3)c2C1 [Example 1.377]
11,5 to 50,Cc1cccc(OCC(C)C)c1-n1nc2c(c1-c1ccc(NC(N)=O)cc1)CN(Cc1c(F)cc(F)cc1F)CC2 [Example 1.307]
12,> 500,COc1cccc(C)c1-n1nc2c(c1-c1ccc(NC(C)=O)cc1)CN(c1ccccc1C(C)C)CC2 [Example 1.483]
13,5 to 50,Cc1cccc(OCC(C)C)c1-n1nc2c(c1-c1ccc(NC(N)=O)cc1)CN(Cc1cc(F)ccc1F)CC2 [Example 1.310]
14,≤ 5,Cc1cc(F)c(C(C)C)cc1N1CCc2nn(-c3c(C)cccc3OCC(C)C)c(-c3ccc(NC(N)=O)cc3)c2C1 [Example 1.427]
15,50 to 500,Cc1cccc(OCC(C)C)c1-n1nc2c(c1-c1ccc(NC(N)=O)cc1)CN(C(=O)c1ccc(C(C)(C)C)cc1)CC2 [Example 1.432]
16,5 to 50,Cc1cccc(OCC(C)C)c1-n1nc2c(c1-c1ccc(NC(N)=O)cc1)CN(CC1(C(F)(F)F)CCCC1)CC2 [Example 1.366]
17,5 to 50,COc1ccc(CN2CCc3nn(-c4c(C)cccc4OCC(C)C)c(-c4ccc(NC(N)=O)cc4)c3C2)c(Cl)c1 [Example 1.304]

# Further lines, the compound ahead of its results:
row,Compound,IC50 [nM]
1,CCc1cccc(CC)c1-n1nc2c(c1-c1cc(F)c(NC(N)=O)cc1F)CN(Cc1ccc(C(F)(F)F)cc1C(F)(F)F)[C@H](C)C2 [Example 1.022],≤ 5
2,Cc1cccc(OCC(C)C)c1-n1nc2c(c1-c1cc(F)c(NC(N)=O)cc1F)CN(c1ncccc1C(C)C)CC2 [Example 1.191],≤ 5
3,Cc1cccc(OCC(C)C)c1-n1nc2c(c1-c1ccc(NC(N)=O)c(F)c1)CN(Cc1nccn1C)CC2 [Example 1.233],> 500
4,Cc1cccc(C)c1-n1nc2c(c1-c1cc(F)c(NC(N)=O)cc1F)CN(c1ccc(Cl)cc1Cl)CC2 [Example 1.119],≤ 5
5,CCc1cccc(CC)c1-n1nc2c(c1-c1cc(F)c(NC(N)=O)cc1F)CN(Cc1cc(C(F)(F)F)ccc1C(F)(F)F)C(C)(C)C2 [Example 1.011],≤ 5
6,CCc1cccc(CC)c1-n1nc2c(c1-c1cc(F)c(NC(N)=O)cc1F)CN(Cc1cccn(C)c1=O)CC2 [Example 1.041],> 500
7,Cc1cccc(C)c1-n1nc2c(c1-c1cc(F)c(NC(N)=O)cc1F)CN(Cc1ccc(Cl)cc1C(F)(F)F)CC2 [Example 1.061],≤ 5
8,Cc1cccc(OCC(C)C)c1-n1nc2c(c1-c1ccc(NC(N)=O)cc1)CN(C(C)(C)c1ccccc1)CC2 [Example 1.134],5 to 50
9,CCc1cccc(CC)c1-n1nc2c(c1-c1cc(F)c(NC(N)=O)cc1F)CN(Cc1cc(C(F)(F)F)ccc1C)CC2 [Example 1.036],≤ 5
10,Cc1cccc(OCC(C)C)c1-n1nc2c(c1-c1cc(F)c(NC(N)=O)cc1F)CN(c1nccn3ccnc13)CC2 [Example 1.142],5 to 50
11,Cc1cccc(C)c1-n1nc2c(c1-c1cc(F)c(NC(N)=O)cc1F)CN(C(CO)c1ccccc1)CC2 (centres unmarked) [Example 1.087],50 to 500
12,CCCC(O)C(C)(C)N1CCc2nn(-c3c(CC)cccc3CC)c(-c3cc(F)c(NC(N)=O)cc3F)c2C1 (centres unmarked) [Example 1.090],≤ 5
13,CCc1cccc(CC)c1-n1nc2c(c1-c1cc(F)c(NC(N)=O)cc1F)CN(C(C)c1ccc(F)cc1)CC2 (centres unmarked) [Example 1.152],≤ 5
14,Cc1cccc(C)c1-n1nc2c(c1-c1cc(F)c(NC(N)=O)cc1F)CN(c1ncc(Cl)cc1Cl)CC2 [Example 1.180],≤ 5
15,CCc1cccc(CC)c1-n1nc2c(c1-c1cc(F)c(NC(N)=O)cc1OC)CN(Cc1ccc(C(F)(F)F)cc1C(F)(F)F)CC2 [Example 1.042],≤ 5
16,CCc1cccc(CC)c1-n1nc2c(c1-c1cc(F)c(NC(N)=O)cc1F)CN(Cc1ccc(Cl)cc1C(F)(F)F)[C@H](C)C2 [Example 1.021],≤ 5
17,CCC(c1ccccc1)N1CCc2nn(-c3c(C)cccc3C)c(-c3cc(F)c(NC(N)=O)cc3F)c2C1 (centres unmarked) [Example 1.096],≤ 5
18,Cc1cccc(C)c1-n1nc2c(c1-c1cc(F)c(NC(N)=O)cc1F)CN(Cc1ccc(C(F)(F)F)cc1C(F)(F)F)C(C)(C)C2 [Example 1.033],≤ 5
19,Cc1cccc(OCC(C)C)c1-n1nc2c(c1-c1ccc(NC(N)=O)c(F)c1)CN(S(=O)(=O)c1ccccc1)CC2 [Example 1.237],5 to 50
20,CCc1cccc(CC)c1-n1nc2c(c1-c1cc(F)c(NC(N)=O)cc1F)CN(CC1CCOC1)CC2 (centres unmarked) [Example 1.020],5 to 50
21,Cc1cccc(OCC(C)C)c1-n1nc2c(c1-c1cc(F)c(NC(N)=O)cc1F)CN(c1ncc(Cl)cc1Cl)CC2 [Example 1.210],≤ 5
22,COc1cccc(C)c1-n1nc2c(c1-c1cc(F)c(NC(N)=O)cc1F)CN(c1ncc(Cl)cc1Cl)CC2 [Example 1.184],≤ 5
23,Cc1cccc(OCC(C)C)c1-n1nc2c(c1-c1cc(F)c(NC(N)=O)cc1F)CN(c1ncccc1F)CC2 [Example 1.178],≤ 5
24,Cc1cnc(N2CCc3nn(-c4c(C)cccc4OCC(C)C)c(-c4ccc(NC(N)=O)c(F)c4)c3C2)c(Cl)c1 [Example 1.213],≤ 5
25,CCc1cccc(CC)c1-n1nc2c(c1-c1cc(F)c(NC(N)=O)cc1F)CN(Cc1ccc(C(F)(F)F)cc1C(F)(F)F)CC2 [Example 1.077],≤ 5
26,Cc1cc(C(N)=O)ccc1-c1c2c(nn1-c1c(C)cccc1C)CCN(c1ncc(Cl)cc1Cl)C2 [Example 1.108],> 500
27,CCc1cccc(CC)c1-n1nc2c(c1-c1cc(F)c(NC(N)=O)cc1F)CN(Cc1ccc(F)cc1C(F)(F)F)CC2 [Example 1.044],≤ 5
28,CCc1cccc(CC)c1-n1nc2c(c1-c1cc(F)c(NC(N)=O)cc1F)CN(Cc1ccc(C#N)cc1C(F)(F)F)CC2 [Example 1.048],≤ 5
29,CCc1cccc(CC)c1-n1nc2c(c1-c1cc(F)c(NC(N)=O)cc1F)CN(Cc1ccc(C(F)(F)F)cc1OC)CC2 [Example 1.058],≤ 5
30,CCc1cccc(CC)c1-n1nc2c(c1-c1cc(F)c(NC(N)=O)cc1F)CN(Cc1ccccc1Cl)C(C)(C)C2 [Example 1.007],≤ 5
